Paper PMC11435058, “Synthesis of New Thiazole-Privileged Chalcones as Tubulin Polymerization Inhibitors with Potential Anticancer Activities” (Pharmaceuticals, 2024)

What was measured:
OVCAR-3 = assay: cells; conditions: Homo sapiens; for activity at 10 µM: OVCAR-3, 48 h, read-out: Growth Percentage
SNB-19 = assay: cells; conditions: Homo sapiens; for activity at 10 µM: SNB-19, 48 h, read-out: Growth Percentage
NCI-H522 = assay: NCI-60 anticancer screen (SRB; single dose and five doses); conditions: Homo sapiens; for activity at 10 µM: NCI-H522, 48 h, read-out: Growth Percentage
NCI-H23 = assay: as above; conditions: Homo sapiens; for activity at 10 µM: NCI-H23, 48 h, read-out: Growth Percentage
MDA-MB-435 = assay: as above; conditions: Homo sapiens; for activity at 10 µM: MDA-MB-435, 48 h, read-out: Growth Percentage
SF-539 = assay: as above; conditions: Homo sapiens; for activity at 10 µM: SF-539, 48 h, read-out: Growth Percentage
M14 = assay: as above; conditions: Homo sapiens; for activity at 10 µM: M14, 48 h, read-out: Growth Percentage
HCT-116 = assay: as above; conditions: Homo sapiens; for activity at 10 µM: HCT-116, 48 h, read-out: Growth Percentage
OVCAR-4 = assay: as above; conditions: Homo sapiens; for activity at 10 µM: OVCAR-4, 48 h, read-out: Growth Percentage
HCC-2998 = assay: as above; conditions: for activity at 10 µM: HCC 2998, 48 h, read-out: Growth Percentage
U251 = assay: as above; conditions: Homo sapiens; for activity at 10 µM: U-251, 48 h, read-out: Growth Percentage
ACHN = assay: as above; conditions: Homo sapiens; for activity at 10 µM: 48 h, read-out: Growth Percentage
SK-OV-3 = assay: as above; conditions: Homo sapiens; for activity at 10 µM: SK-OV-3, 48 h, read-out: Growth Percentage
UO-31 = assay: as above; conditions: Homo sapiens; for activity at 10 µM: UO-31, 48 h, read-out: Growth Percentage
EKVX = assay: as above; conditions: Homo sapiens; for activity at 10 µM: 48 h, read-out: Growth Percentage
786-0 = assay: as above; conditions: Homo sapiens; for activity at 10 µM: 786-0, 48 h, read-out: Growth Percentage
SN12C = assay: as above; conditions: Homo sapiens; for activity at 10 µM: 48 h, read-out: Growth Percentage
TK-10 = assay: as above; conditions: Homo sapiens; for activity at 10 µM: TK-10, 48 h, read-out: Growth Percentage
NCI-H460 = assay: as above; conditions: Homo sapiens; for activity at 10 µM: NCI-H460, 48 h, read-out: Growth Percentage
SK-MEL-28 = assay: as above; conditions: Homo sapiens; for activity at 10 µM: SK-MEL-28, 48 h, read-out: Growth Percentage
SNB-75 = assay: as above; conditions: Homo sapiens, SNB-75, 48 h, read-out: Growth Percentage
OVCAR-8 = assay: as above; conditions: Homo sapiens; for activity at 10 µM: OVCAR-8, 48 h, read-out: Growth Percentage
A498 = assay: as above; conditions: Homo sapiens; for activity at 10 µM: A498, 48 h, read-out: Growth Percentage, A498, dose of 10 μM
SW-620 = assay: as above; conditions: Homo sapiens; for activity at 10 µM: SW-620, 48 h, read-out: Growth Percentage
MDA-MB-468 = assay: as above; format: cell-based, human; conditions: for activity at 10 µM: 48 h, MDA-MB-468, dose of 10 μM, read-out: Growth Percentage
Procedure, shortened: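 Readout was sulforhodamine B staining, read spectrophotometrically as percent growth against untreated controls. This followed a 48 h exposure to one 10μM dose across roughly 60 human tumor lines of the NCI screen.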

Cc1ccc(/C=C/C(=O)c2sc(=S)[nH]c2C)cc1 [2j, (E)-1-(4-Methyl-2-Thioxo-2,3-Dihydrothiazol-5-yl)-3-(p-Tolyl)Prop-2-En-1-One]
activity at 10 µM (OVCAR-3): 15% | activity at 10 µM (SNB-19): 65.5% | activity at 10 µM (NCI-H522): 60.2% | activity at 10 µM (NCI-H23): 68.5% | activity at 10 µM (MDA-MB-435): 39% | activity at 10 µM (SF-539): 43% | activity at 10 µM (M14): 83% | activity at 10 µM (HCT-116): 46.7% | activity at 10 µM (OVCAR-4): 59.2% | activity at 10 µM (HCC-2998; Homo sapiens): 77.2% | activity at 10 µM (U251): 60.4% | activity at 10 µM (ACHN): 71.2% | activity at 10 µM (SK-OV-3): 102% | activity at 10 µM (UO-31): 46.8% | activity at 10 µM (EKVX): 55.5% | activity at 10 µM (786-0): 70.7% | activity at 10 µM (SN12C): 62.3% | activity at 10 µM (TK-10): 79.8% | activity at 10 µM (NCI-H460): 53.1% | activity at 10 µM (SK-MEL-28): 92.8% | activity at 10 µM (SNB-75): 78.1% | activity at 10 µM (OVCAR-8): 17.3% | activity at 10 µM (A498): 131% | activity at 10 µM (SW-620): 35.9% | activity at 10 µM (MDA-MB-468; Homo sapiens): 11.8%

Cc1[nH]c(=S)sc1C(=O)/C=C/c1ccc([N+](=O)[O-])cc1 [2i, (E)-1-(4-Methyl-2-Thioxo-2,3-Dihydrothiazol-5-yl)-3-(4-Nitrophenyl)Prop-2-En-1-One]
GI50 (OVCAR-3; OVCAR-3): 2.22 µM | activity at 10 µM (OVCAR-3): -6% | CC50 (OVCAR-3; OVCAR-3, read-out: LC50): 16.6 µM | IC (TGI) (OVCAR-3; OVCAR-3, read-out: TGI): 5.28 µM | GI50 (SNB-19; SNB-19): 5.42 µM | activity at 10 µM (SNB-19): 41.2% | CC50 (SNB-19; SNB-19, read-out: LC50): 43.2 µM | IC (TGI) (SNB-19; SNB-19, read-out: TGI): 18.3 µM | GI50 (NCI-H522; NCI-H522): 9.37 µM | activity at 10 µM (NCI-H522): 33% | CC50 (NCI-H522; NCI-H522, read-out: LC50): 51.5 µM | IC (TGI) (NCI-H522; NCI-H522, read-out: TGI): 22.5 µM | GI50 (NCI-H23; NCI-H23): 12.2 µM | activity at 10 µM (NCI-H23): 49.2% | CC50 (NCI-H23; NCI-H23, read-out: LC50): 52.6 µM | IC (TGI) (NCI-H23; NCI-H23, read-out: TGI): 25.3 µM | GI50 (MDA-MB-435; MDA-MB-435): 7.39 µM | activity at 10 µM (MDA-MB-435): 3.76% | CC50 (MDA-MB-435; MDA-MB-435, read-out: LC50): 50.9 µM | IC (TGI) (MDA-MB-435; MDA-MB-435, read-out: TGI): 21.1 µM | GI50 (SF-539; SF-539): 2.31 µM | activity at 10 µM (SF-539): -25.2% | IC (TGI) (SF-539; SF-539, read-out: TGI): 7.02 µM | GI50 (M14; M14): 12.2 µM | activity at 10 µM (M14): 69.5% | IC (TGI) (M14; M14, read-out: TGI): 28.4 µM | GI50 (HCT-116; HCT-116): 2.78 µM | activity at 10 µM (HCT-116): -47.8% | CC50 (HCT-116; HCT-116, read-out: LC50): 44.3 µM | IC (TGI) (HCT-116; HCT-116, read-out: TGI): 7.89 µM | GI50 (OVCAR-4; OVCAR-4): 14.9 µM | activity at 10 µM (OVCAR-4): 49.2% | CC50 (OVCAR-4; OVCAR-4, read-out: LC50): 53.8 µM | IC (TGI) (OVCAR-4; OVCAR-4, read-out: TGI): 28.3 µM | GI50 (HCC-2998; Homo sapiens, HCC 2998): 9.37 µM | activity at 10 µM (HCC-2998; Homo sapiens): -11.9% | CC50 (HCC-2998; Homo sapiens, HCC 2998, read-out: LC50): 47 µM | TGI (HCC-2998; five-dose, Colon Cancer HCC-2998): 21.5 µM | GI50 (U251; U-251): 4.1 µM | activity at 10 µM (U251): 13.7% | CC50 (U251; U-251, read-out: LC50): 53 µM | IC (TGI) (U251; U-251, read-out: TGI): 17 µM | GI50 (ACHN): 11.3 µM | activity at 10 µM (ACHN): 3.88% | CC50 (ACHN; read-out: LC50): 48.4 µM | IC (TGI) (ACHN; read-out: TGI): 23.3 µM | GI50 (SK-OV-3; SK-OV-3): 18.6 µM | activity at 10 µM (SK-OV-3): 108% | CC50 (SK-OV-3; SK-OV-3, read-out: LC50): 76.9 µM | IC (TGI) (SK-OV-3; SK-OV-3, read-out: TGI): 37.8 µM | GI50 (UO-31; UO-31): 4.86 µM | activity at 10 µM (UO-31): -41.3% | IC (TGI) (UO-31; UO-31, read-out: TGI): 18.8 µM | GI50 (EKVX): 16.4 µM | activity at 10 µM (EKVX): 74.7% | CC50 (EKVX; read-out: LC50): 58.1 µM | IC (TGI) (EKVX; read-out: TGI): 30.9 µM | GI50 (786-0; 786-0): 3.99 µM | activity at 10 µM (786-0): 25.6% | CC50 (786-0; 786-0, read-out: LC50): 54 µM | IC (TGI) (786-0; 786-0, read-out: TGI): 17.6 µM | GI50 (SN12C): 6.06 µM | activity at 10 µM (SN12C): 18.6% | CC50 (SN12C; read-out: LC50): 44.7 µM | IC (TGI) (SN12C; read-out: TGI): 19.3 µM | GI50 (TK-10; TK-10): 12.4 µM | activity at 10 µM (TK-10): 12.9% | CC50 (TK-10; TK-10, read-out: LC50): 51.3 µM | IC (TGI) (TK-10; TK-10, read-out: TGI): 25.3 µM | GI50 (NCI-H460; NCI-H460): 15.9 µM | activity at 10 µM (NCI-H460): 11.3% | CC50 (NCI-H460; NCI-H460, read-out: LC50): 72.5 µM | IC (TGI) (NCI-H460; NCI-H460, read-out: TGI): 34 µM | GI50 (SK-MEL-28; SK-MEL-28): 13.7 µM | activity at 10 µM (SK-MEL-28): 23.9% | CC50 (SK-MEL-28; SK-MEL-28, read-out: LC50): 52.5 µM | IC (TGI) (SK-MEL-28; SK-MEL-28, read-out: TGI): 26.8 µM | activity at 10 µM (SNB-75): 36% | GI50 (OVCAR-8; OVCAR-8): 7.73 µM | activity at 10 µM (OVCAR-8): 7.06% | CC50 (OVCAR-8; OVCAR-8, read-out: LC50): 65.2 µM | IC (TGI) (OVCAR-8; OVCAR-8, read-out: TGI): 23.9 µM | GI50 (A498; A498): 15.5 µM | activity at 10 µM (A498): 105% | CC50 (A498; A498, read-out: LC50): 55.3 µM | IC (TGI) (A498; A498, read-out: TGI): 29.3 µM | GI50 (SW-620; SW-620): 3.59 µM | activity at 10 µM (SW-620): -44.8% | CC50 (SW-620; SW-620, read-out: LC50): 44.2 µM | IC (TGI) (SW-620; SW-620, read-out: TGI): 13.9 µM | activity at 10 µM (MDA-MB-468; Homo sapiens): -18.9% | GI50 (MDA-MB-468; Homo sapiens, MDA-MB-468, Breast Cancer, five dose): 2.2 µM | CC50 (MDA-MB-468; Homo sapiens, MDA-MB-468, Breast Cancer, five dose, read-out: LC50 (the source's name)): 31.4 µM | TGI (MDA-MB-468; MDA-MB-468, Breast Cancer, five dose): 8 µM

Cc1[nH]c(=S)sc1C(=O)/C=C/c1ccc(N(C)C)cc1 [2k, (E)-3-(4-(Dimethylamino)Phenyl)-1-(4-Methyl-2-Thioxo-2,3-Dihydrothiazol-5-yl)Prop-2-En-1-One]
activity at 10 µM (OVCAR-3): 82.2% | activity at 10 µM (SNB-19): 71.2% | activity at 10 µM (NCI-H522): 58.9% | activity at 10 µM (NCI-H23): 71.1% | activity at 10 µM (MDA-MB-435): 58.4% | activity at 10 µM (SF-539): 88.7% | activity at 10 µM (M14): 83.2% | activity at 10 µM (HCT-116): 72.2% | activity at 10 µM (OVCAR-4): 51.2% | activity at 10 µM (HCC-2998; Homo sapiens): 95.3% | activity at 10 µM (U251): 67.1% | activity at 10 µM (ACHN): 75.7% | activity at 10 µM (SK-OV-3): 92.6% | activity at 10 µM (UO-31): 48.3% | activity at 10 µM (EKVX): 67% | activity at 10 µM (786-0): 91.7% | activity at 10 µM (SN12C): 75.7% | activity at 10 µM (TK-10): 86.8% | activity at 10 µM (NCI-H460): 85.7% | activity at 10 µM (SK-MEL-28): 92.7% | activity at 10 µM (SNB-75): 96% | activity at 10 µM (OVCAR-8): 83.4% | activity at 10 µM (A498): 130% | activity at 10 µM (SW-620): 89.9% | activity at 10 µM (MDA-MB-468; Homo sapiens): 35.4%
